How the values were obtained:
[1] = test system: PDF1.2 mRNA; test: MeJA treatment of plants, RNA gel blot of JA-responsive PDF1.2 mRNA; assay type: in vivo, Arabidopsis
[2] = test system: THI2.1 mRNA; test: MeJA treatment of plants, RNA gel blot of JA-responsive THI2.1 mRNA; assay type: in vivo, Arabidopsis; details: for THI2.1 mRNA accumulation after MeJA treatment: not shown
[3] = nahG expressing wild type plants

CC/C=C\CC1C(=O)CCC1CC(=O)OC (stereo not drawn) [MeJA, methyl jasmonate]
PDF1.2 mRNA accumulation after MeJA treatment ([1]; mpk4/nahG plants): not inducible | induction of PDF1.2 expression ([1]; mpk4 mutant plants, sprayed with 50 μM MeJA, harvested after 48 hours): failed to induce | PDF1.2 mRNA accumulation after MeJA treatment [1, 3]: induced | THI2.1 mRNA accumulation after MeJA treatment ([2]; mpk4/nahG plants): not inducible | induction of THI2.1 expression ([2]; mpk4 mutant plants, sprayed with 50 μM MeJA, harvested after 48 hours, data not shown): failed to induce | THI2.1 mRNA accumulation after MeJA treatment [2, 3]: induced

Reference: US20040172685A1, “Method of using MAPK4 and orthologues thereof to control plant disease resistance and plant growth” (priority 1999, published 2004)
